Experimental data published in US10287269B2, “Pyrazolyl pyrimidinone compounds as PDE2 inhibitors” (Merck Sharp & Dohme Corp., priority 2015, dated 2019).

Molecular target: T1, human PDE2A1 (Homo sapiens, UniProt O00408)
T1 construct: GST; purchased BPS Bioscience (San Diego, Calif.) 60020; host or cells: insect cells
Assay: PDE2 IMAP FP inhibition assay, human enzyme (PDE selectivity panel format)
Assay type: biochemical
Conditions: Lab A; read-out: Human PDE2 Ki (nM) Lab A
Summary of the method: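 GST-tagged human PDE2A1 from insect cells, run at room temperature in 10 mM Tris pH 7.2, 10 mM MgCl2, 1 mM DTT with 50 nM FAM-cAMP plus 1000 nM cGMP for 60 min. IMAP fluorescence polarization read-out; apparent Ki derived using apparent KM 10,000 nM.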

T1 sequence (O00408 1-920 isoform O00408-2): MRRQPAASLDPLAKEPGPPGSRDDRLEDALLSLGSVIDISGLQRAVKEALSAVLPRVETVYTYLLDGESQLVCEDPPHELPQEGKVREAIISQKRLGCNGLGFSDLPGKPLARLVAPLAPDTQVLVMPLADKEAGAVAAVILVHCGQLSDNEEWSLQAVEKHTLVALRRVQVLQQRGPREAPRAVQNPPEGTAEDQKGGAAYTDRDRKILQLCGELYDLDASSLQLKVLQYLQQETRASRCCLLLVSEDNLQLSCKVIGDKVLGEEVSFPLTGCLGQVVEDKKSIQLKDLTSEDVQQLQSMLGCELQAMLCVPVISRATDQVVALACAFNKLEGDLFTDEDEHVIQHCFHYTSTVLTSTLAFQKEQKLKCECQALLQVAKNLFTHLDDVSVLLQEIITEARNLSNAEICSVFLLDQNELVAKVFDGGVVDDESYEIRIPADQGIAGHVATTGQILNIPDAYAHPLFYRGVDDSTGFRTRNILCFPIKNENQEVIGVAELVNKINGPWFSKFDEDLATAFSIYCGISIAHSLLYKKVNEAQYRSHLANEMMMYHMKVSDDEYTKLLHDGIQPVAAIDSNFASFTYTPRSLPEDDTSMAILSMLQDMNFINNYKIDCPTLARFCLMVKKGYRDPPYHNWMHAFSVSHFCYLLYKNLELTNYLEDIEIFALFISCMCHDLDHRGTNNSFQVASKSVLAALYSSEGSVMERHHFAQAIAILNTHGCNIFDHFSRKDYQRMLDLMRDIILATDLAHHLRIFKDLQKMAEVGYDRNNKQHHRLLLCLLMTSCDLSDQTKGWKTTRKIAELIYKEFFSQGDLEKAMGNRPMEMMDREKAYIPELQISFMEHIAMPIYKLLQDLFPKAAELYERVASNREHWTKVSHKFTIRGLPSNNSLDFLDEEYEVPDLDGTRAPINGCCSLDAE

Row | Ki [nM] | Compound
1 | 60.4 | CC(c1ccc(C(F)(F)F)cc1F)n1cc(-c2cc(=O)[nH]c(Cc3ccccc3)n2)cn1 (stereo not drawn) [Example 35, 2-benzyl-6-(1-(1-(2-fluoro-4-(trifluoromethyl)phenyl)ethyl)-1H-pyrazol-4-yl)pyrimidin-4(3H)-one]
2 | 104 | CC(C)c1nc(-c2cnn(C(C)c3ccc(C(F)(F)F)cc3F)c2)cc(=O)[nH]1 (stereo not drawn) [Example 9, 6-(1-(1-(2-Fluoro-4-(trifluoromethyl)phenyl)ethyl)-1H-pyrazol-4-yl)-2-isopropylpyrimidin-4(3H)-one]
3 | 19.5 | CC(c1ccc(C(F)(F)F)cc1F)n1cc(-c2cc(=O)[nH]c(C3CC3)n2)cn1 (stereo not drawn) [Example 10]
4 | 52.5 | Cc1nc(-c2cnn(C(C)c3ccc(C4CC4)cc3C)c2)cc(=O)[nH]1 (single isomer, unassigned) [Example 94, (S)- or (R)-6-(1-(1-(4-cyclopropyl-2-methylphenyl)ethyl)-1H-pyrazol-4-yl)-2-methylpyrimidin-4(3H)-one]

Same assay, conditions: Lab B; read-out: Human PDE2 Ki (nM) Lab B

Row | Ki [nM] | Compound
5 | 255 | Cc1nc(-c2ccn(C(C)c3ccc(C(F)(F)F)cc3)n2)cc(=O)[nH]1 (single isomer, unassigned) [Example 78, (S)- or (R)-2-methyl-6-(1-{(1R)-1-[4-(trifluoromethyl)phenyl]ethyl}-1H-pyrazol-3-yl)pyrimidin-4(3H)-one]
6 | 441 | Cc1nc(-c2ccn(C(C)c3ccc(C(F)(F)F)cc3)n2)cc(=O)[nH]1 (single isomer, unassigned) [Example 77, (R)- or (S)-2-methyl-6-(1-(1-(4-(trifluoromethyl)phenyl)ethyl)-1H-pyrazol-3-yl)pyrimidin-4(3H)-one]
7 | 81 | Cc1nc(-c2cc([C@H](C)c3ccc(C(F)(F)F)cc3)[nH]n2)cc(=O)[nH]1 (single isomer, unassigned) [Example 24]
8 | 197 | Cc1nc(-n2cc(C(C)c3ccc(C4(C)CC4)cc3)cn2)cc(=O)[nH]1 (stereo not drawn) [Example 40, 2-methyl-6-(4-(1-(4-(1-methylcyclopropyl)phenyl)ethyl)-1H-pyrazol-1-yl)pyrimidin-4(3H)-one]
9 | 91.9 | Cc1nc(-c2cnn(C(C)c3ccc(C(F)(F)F)cc3F)c2)cc(=O)[nH]1 (single isomer, unassigned) [Example 135, (R)- or (S)-6-(1-(1-(2-fluoro-4-(trifluoromethyl)phenyl)ethyl)-1H-pyrazol-4-yl)-2-methylpyrimidin-4(3H)-one]
